Source: patent US20140314844A1, “ORAL COMPLEX FORMULATION COMPRISING OMEGA-3 FATTY ACID AND HMG-COA REDUCTASE INHIBITOR WITH IMPROVED STABILITY” (HANMI PHARM. CO., LTD, priority 2011, published 2014)

Assay: Suitability test between capsule ingredients and rosuvastatin calcium (heating, HPLC of related material RRT 0.72)
Assay type: physicochemical
Conditions: rosuvastatin 50 mg mixed with 100 mg capsule ingredient, heated at 100° C. for 2 hours, FIG. 1
Experimental: In order to evaluate interaction between the ingredients of a soft or hard capsule and statins, the following test was performed.
Specifically, gelatin (grade: 165 bloom, Geltech, Korea) which is a main ingredient of capsule; glycerol, propylene glycol and polyethylene glycol (PEG400), which are often used as a plasticizer; and sorbitol sorbitan solution (ROQUETTE, France, NF grade, containing solid content of 27.5 wt % of sorbitan and 34.4 wt % of sorbitol) were examined to evaluate the interaction with rosuvastatin calcium. In accordance with the ingredients described in Table 1, all ingredients were mixed, heated at 100° C. for 2 hours, and then evaluated by HPLC analysis.
HPLC analysis was performed using a stainless steel column of approximately 250 mm length, packed with 5 μm C18 or a similar column (Inertsil-ODS2, GL sciences) with a mobile phase of water:acetonitrile:1%(v/v) trifluoroacetic acid solution (62:37:1 (v/v)) at flow rate of 0.75 mL/min. The peak of related material as compared to the major peak of rosuvastatin, was analyzed quantitatively.

CC(C)c1nc(N(C)S(C)(=O)=O)nc(-c2ccc(F)cc2)c1/C=C/[C@@H](O)C[C@@H](O)CC(=O)[O-].CC(C)c1nc(N(C)S(C)(=O)=O)nc(-c2ccc(F)cc2)c1/C=C/[C@@H](O)C[C@@H](O)CC(=O)[O-].[Ca+2] [Ref. Ex. 1, rosuvastatin calcium]
production of related material RRT 0.72: excluding
